# Assay results as given in patent US20070009593A1, “Methods of treating cancer” (Indianan University Advanced Research, priority 2002, published 2007).
# Peptide text beside a SMILES is read from it. * marks the point of attachment. Cbz = O=C(OCc1ccccc1)*
# Legend:
# Caco 2 cells = test: proliferation / combination assay in colon cancer cells; format: cell-based; conditions: Homo sapiens; Caco 2, single agent; read-out: IC50
# H460 [1] = test: MTT assay, NSCLC cell line; format: cell-based; conditions: Homo sapiens; for IC50: NCI-H460; for IC80: NCI-H460, single agent
# H23 [2] = test: MTT assay, NSCLC cell line; format: cell-based; conditions: Homo sapiens, NCI-H23
# H522 = test: MTT assay, NSCLC cell line; format: cell-based; conditions: Homo sapiens; for IC50: NCI-H522; for IC80: NCI-H522, single agent
# MDA-231 = test: MTT assay, breast cancer line; format: cell-based; conditions: Homo sapiens, MDA-MB-231; MDA-231, 48 hours, MTT, single agent; read-out: IC50
# Description: The drugs were tested together at the ratio of their IC50 as single agents, over a 4-log range of concentrations. […] Viable cell number was measured by MTT assay.
# A549 [3] = test: MTT assay, NSCLC cell line; format: cell-based; conditions: Homo sapiens; for IC80: A549, MTT assay, single agent; for IC50: MTT assay
# [4] = target: T1, chymotryptic active site of the proteasome (ZGGL-AMC cleavage) (Homo sapiens, UniProt P28074); test: fluorometric assay of ZGGL-AMC cleavage by Caco 2 cells; format: cell-based; conditions: for ZGGL-AMC cleavage: Caco 2 cells (DMSO control 0.287)
# T1 construct: Fluorometric assay of ZGGL-AMC cleavage by Caco 2 cells; endogenous in cells; host or cells: Caco 2
# HUVEC = HUVEC cell spreading assay; format: cell-based, human; conditions: 100 μM, same spreading conditions
# Description: Cells were fixed in 3.7% formaldehyde in PBS, blocked and stained with Oregon-green phalloidin 514 (Molecular Probes), and then digitally photographed using a Zeiss inverted fluorescence microscope equipped with a CCD camera. Cell areas were measured on the digital images using the Spot program (Diagnostic Imaging).
# A549 [5] = test: cell survival at 60 hours, amprenavir; format: cell-based; conditions: A549, 60 hours, FIG. 4
# From the text: (§1) Three cancer cell lines (A549, H460, and H23) where treated with varying doses of amprenavir.
# H23 [6] = test: cell survival at 60 hours, amprenavir; format: cell-based; conditions: H23, 60 hours, FIG. 4
# From the text: as §1
# H460 [7] = test: cell survival at 60 hours, amprenavir; format: cell-based; conditions: H460, 60 hours, FIG. 4
# From the text: as §1
compound,measurement,setting,value
"Cc1ccc(-c2cc(C(F)(F)F)nn2-c2ccc(S(N)(=O)=O)cc2)cc1 [Celecoxib, celecoxib]",IC50,Caco 2 cells,60000 nM
"CC(=O)O[C@@]12CO[C@@H]1C[C@H](O)[C@@]1(C)C(=O)[C@H](O)C3=C(C)[C@@H](OC(=O)[C@H](O)[C@@H](NC(=O)OC(C)(C)C)c4ccccc4)C[C@@](O)([C@@H](OC(=O)c4ccccc4)[C@H]21)C3(C)C [Docetaxel, docetaxel]",IC50,Caco 2 cells,5 nM
same,IC50,H460 [1],5 nM
same,IC80,H460 [1],> 50 nM
same,IC50,H23 [2],5.5 nM
same,IC50,H522,4.9 nM
same,IC80,H522,> 50 nM
same,IC50,MDA-231,10 nM
same,IC80,A549 [3],> 50 nM
same,IC50,A549 [3],4.5 nM
"O=c1[nH]cc(F)c(=O)[nH]1 [Formula 5-FU, 5-fluorouracil]",IC50,Caco 2 cells,28000 nM
"CC(=O)N[C@@H](CSC(=O)[C@]1([C@@H](O)C(C)C)NC(=O)[C@H](C)[C@@H]1O)C(=O)O [Lactacystin, lactacystin]",blocks substrate cleavage (ZGGL-AMC),"[4]; 5 μM, Caco 2 cells",over 95%
same,ZGGL-AMC cleavage,[4]; 5 μM,0.022 pmol·s^1− 10^6 cells
"CC(C)[C@H](NC(=O)OCc1ccccc1)C(=O)N[C@H](C=O)Cc1ccccc1 [MDL 28, 170] (Cbz-Val-Phe-aldehyde)",blocked spreading,HUVEC,21%
O=C(O)/C(S)=C/c1ccc(I)cc1 [PD150606],ZGGL-AMC cleavage,[4]; 50 μM,0.187 pmol·s^1− 10^6 cells
same,blocks ZGGL-AMC cleavage,[4]; Caco 2 cells (50 μM in table),less than 30%
"CC(=O)O[C@H]1C(=O)[C@@]2(C)[C@H]([C@H](OC(=O)c3ccccc3)[C@]3(O)C[C@H](OC(=O)[C@H](O)[C@@H](NC(=O)c4ccccc4)c4ccccc4)C(C)=C1C3(C)C)[C@]1(OC(C)=O)CO[C@@H]1C[C@@H]2O [Paclitaxel, paclitaxel]",IC50,Caco 2 cells,400 nM
same,IC50,H460 [1],120 nM
same,IC80,H460 [1],> 200 nM
same,IC50,H23 [2],110 nM
same,IC50,H522,105 nM
same,IC80,H522,> 200 nM
same,IC80,A549 [3],> 200 nM
same,IC50,A549 [3],90 nM
amprenavir,IC50,A549 [5],4000 to 5000 nM
same,IC50,H23 [6],4000 to 5000 nM
same,IC50,H460 [7],4000 to 5000 nM
